pIC50: −log10 of the molar value. Read-outs that look alike come from different tables or passages of the source.
Legend:
[1] = tested on: P. falciparum male gametocytes; test: P. falciparum Dual Gamete Formation Assay (PfDGFA), male readout (exflagellation); assay type: cell-based, Plasmodium falciparum NF54; details: for Selectivity Ratio M: HepG2 Tox50 versus male IC50; for inhibition at 2 µM / pIC50: Plasmodium falciparum; for pIC50: PfDGFA, 24 h incubation with gametocytes before induction, exflagellation readout, read-out: Male IC50; for Activity: hit = >50% inhibition in male or female readout in at least 3 replicates, 0 = no class assigned
Method: (§1) P. falciparum NF54 (originally isolated from an imported malaria case in the Netherlands in the 1980s; BEI Resources, cat. No. MRA-1000) strain asexual parasites were maintained between 0.3–5% parasitaemia by regular passage in complete culture medium (RPMI supplemented with 25 mM HEPES, 50 μg ml^−1 hypoxanthine, 4.8 g l^−1 NaHCO3, 2mM L-glutamine, 5% pooled type AB serum, 0.5% Albumax II (Gibco)) at 4% haematocrit in washed whole blood (National Blood and Transfusion Service or Centro de Transfusiones de la Comunidad de Madrid CTCM) under a 1% O2/3% CO2/96% N2 environment. Gametocytes were induced by seeding culture flasks at 2% parasitaemia/4% haematocrit and subjecting them to daily medium changes for 14 days whilst maintaining a temperature of 37°C at all times. On Day 14, the maturity of gametocytes was assessed by quantifying male gametogenesis (exflagellation). A 20 μl sample of gametocyte culture was mixed with equal volume of ookinete medium (complete culture medium supplemented with 0.1 μM xanthurenic acid) at room temperature and transferred to a haemocytometer. After 20 min at room temperature, exflagellation was accurately quantified as described in Delves et al. 2016 [17].
(§2) The Pf DGFA was performed as described in Delves et al. 2016 [17]. […] Plates were then incubated for 24 h at 37°C in a humidified box under a 1% O2/3% CO2/96% N2 gas mix. Gametogenesis was triggered by addition of 10 μl per well of ookinete medium + 0.27 μg ml^-1 Cy3-labelled anti-Pfs25 antibody. Plates were incubated on a metal block at 4°C for 4 min to ensure even cooling, then 28°C for a further 4 min. Exflagellation was recorded by capturing 10 frames over 1 s under brightfield illumination using a x4 objective with a 1.5x zoom (effectively x6) attached to an automated Nikon Ti fluorescence microscope. After recording exflagellation, plates were incubated for a further 24 h in the dark at 28°C to ensure maximal expression of Pfs25 by female gametes. The plates were then returned to the microscope and female gametes imaged at x6 using fluorescence microscopy.
(§3) Exflagellation centres and female gametes were quantified using custom image analysis pipelines developed within ICY Bioimage Analysis (https://icy.bioimageanalysis.org/).

[2] = tested on: P. falciparum female gametocytes; test: P. falciparum Dual Gamete Formation Assay (PfDGFA), female readout (Pfs25-positive female gametes); assay type: cell-based, Plasmodium falciparum NF54; details: for Selectivity ratio F: HepG2 Tox50 versus female IC50; for inhibition at 2 µM / pIC50: Plasmodium falciparum; for pIC50: PfDGFA, 24 h incubation with gametocytes before induction, female gamete readout, read-out: Female IC50
Method: as §1, §2, §3

[3] = 2µM, 24h preincubation with gametocytes prior to induction of gametogenesis, average of replicates
[4] = 2µM, 24h preincubation with gametocytes prior to induction of gametogenesis, replicate R1
[5] = 2µM, 24h preincubation with gametocytes prior to induction of gametogenesis, replicate R3
[6] = 2µM, 24h preincubation with gametocytes prior to induction of gametogenesis, replicate R4
[7] = 2µM, 24h preincubation, hits selected on >50% inhibition in the male readout across replicates
[8] = PfDGFA at 2µM, 24h preincubation
[9] = 2µM, 24h preincubation, hits selected on >50% inhibition in the female readout across replicates
[10] = PfDGFA at 2µM, 24h preincubation with gametocytes prior to induction of gametogenesis, replicate R1
[11] = PfDGFA at 2µM, 24h preincubation with gametocytes prior to induction of gametogenesis, replicate R4
[12] = PfDGFA at 2µM, 24h preincubation, average of replicates
[13] = PfDGFA at 2µM, 24h preincubation with gametocytes prior to induction of gametogenesis, replicate R3
[14] = 2µM, 24h preincubation, number of replicates with >50% inhibition in the male readout
[15] = 2µM, 24h preincubation, number of replicates with >50% inhibition in the female readout

| SMILES | Average inhibition male (%) [1, 3] [%] | % inhibition male (individual replicates) R1 [1, 4] [%] | % inhibition male (individual replicates) R3 [1, 5] [%] | % inhibition male (individual replicates) R4 [1, 6] [%] | HitlevelM [1, 7] | Activity [1, 8] | Average inhibition female (%) [2, 3] [%] | % inhibition female (individual replicates) R1 [2, 4] [%] | % inhibition female (individual replicates) R3 [2, 5] [%] | % inhibition female (individual replicates) R4 [2, 6] [%] | HitlevelF [2, 9] | % inhibition male (individual replicates) R1 [1, 10] [%] | % inhibition male (individual replicates) R4 [1, 11] [%] | Average inhibition male (%) [1, 12] [%] | % inhibition female (individual replicates) R1 [2, 10] [%] | % inhibition female (individual replicates) R3 [2, 13] [%] | % inhibition female (individual replicates) R4 [2, 11] [%] | Average inhibition female (%) [2, 12] [%] | other results |
| --- | --- | --- | --- | --- | --- | --- | --- | --- | --- | --- | --- | --- | --- | --- | --- | --- | --- | --- | --- |
| FC(F)(F)c1cccc(NC(=S)NN=Cc2ccccn2)c1 [TCMDC-123509] | – | – | – | – | – | – | – | – | – | – | – | – | – | – | – | – | – | – | Selectivity Ratio M [1]: 143.09; inhibition at 2 µM ([1]; 2µM, 24h preincubation with gametocytes, average of replicates, read-out: Average inhibition male (%)): 94.6%; inhibition at 2 µM ([1]; 2µM, 24h preincubation with gametocytes, replicate R1, read-out: % inhibition male (individual replicates) R1): 103%; inhibition at 2 µM ([1]; 2µM, 24h preincubation with gametocytes, replicate R2, read-out: % inhibition male (individual replicates) R2): 94.6%; inhibition at 2 µM ([1]; 2µM, 24h preincubation with gametocytes, replicate R3, read-out: % inhibition male (individual replicates) R3): 102%; inhibition at 2 µM ([1]; 2µM, 24h preincubation with gametocytes, replicate R4, read-out: % inhibition male (individual replicates) R4): 79.6%; pIC50 [1]: 6.15; Selectivity ratio F [2]: 142.25; inhibition at 2 µM ([2]; 2µM, 24h preincubation with gametocytes, average of replicates, read-out: Average inhibition female (%)): 50.5%; inhibition at 2 µM ([2]; 2µM, 24h preincubation with gametocytes, replicate R1, read-out: % inhibition female (individual replicates) R1): 35.3%; inhibition at 2 µM ([2]; 2µM, 24h preincubation with gametocytes, replicate R2, read-out: % inhibition female (individual replicates) R2): 76.8%; inhibition at 2 µM ([2]; 2µM, 24h preincubation with gametocytes, replicate R3, read-out: % inhibition female (individual replicates) R3): 45%; inhibition at 2 µM ([2]; 2µM, 24h preincubation with gametocytes, replicate R4, read-out: % inhibition female (individual replicates) R4): 45%; pIC50 [2]: 6.15 |
| CC1(C)N=C(N)N=C(N)N1c1ccc(Oc2ccc(Cl)cc2)c(Cl)c1 [TCMDC-123522] | -4.1 | 6.1 | -10.9 | -16.5 | 0 | 0 | 4.9 | 11.0 | 16.4 | -0.18 | 0 | – | – | – | – | – | – | – | – |
| Cc1cc(N2CCN(C)CC2)nc2ccc(NC(=O)Cc3cccc(C(F)(F)F)c3)cc12 [TCMDC-123590] | – | – | – | – | – | – | – | – | – | – | – | 6.9 | -7.6 | 3.5 | 1.4 | 3.7 | -0.7 | 2.2 | – |
| Cc1ccc(-c2nc3cc(NC(=O)c4ccc([N+](=O)[O-])o4)ccc3o2)cc1Cl [TCMDC-123657] | 5.4 | 3.2 | -3.8 | 12.9 | 0 | 0 | 15.9 | 10.9 | 11.0 | 33.8 | 0 | – | – | – | – | – | – | – | – |
| CC(=O)c1cccc(S(=O)(=O)NCCCNc2nc3cc(C)cc(C)c3cc2C#N)c1 [TCMDC-123734] | -13.5 | -6.4 | -3.8 | -42.5 | 0 | 0 | 6.2 | 1.3 | -13.6 | 33.9 | 0 | – | – | – | – | – | – | – | – |
| COc1ccc(C2CC(c3cccs3)=NN2C(=O)c2ccccc2)cc1OC (centres unmarked) [TCMDC-123755] | – | – | – | – | – | – | – | – | – | – | – | -16.5 | 27.6 | 0.438 | 2.3 | -20.6 | -7.2 | -3.5 | % inhibition male (individual replicates) R3 [1, 13]: -10.3% |
| OC1CCN(c2cc(-c3ccccn3)nc(-c3ccccn3)n2)CC1 [TCMDC-123786] | – | – | – | – | – | – | – | – | – | – | – | -14.8 | -28.8 | -7.4 | -1.4 | -6.8 | 3.7 | 0.215 | – |
| Cc1cc(C(=O)OCC(=O)Nc2c(C)n(C)n(-c3ccccc3)c2=O)c(C)n1-c1ccc(F)cc1 [TCMDC-123794] | – | – | – | – | – | – | – | – | – | – | – | – | – | – | – | – | – | – | HitlevelM [1, 14]: 3; Selectivity Ratio M [1]: 52.65; inhibition at 2 µM ([1]; 2µM, 24h preincubation with gametocytes prior to induction of gametogenesis, average of replicates, read-out: Average inhibition male (%)): 57.2%; inhibition at 2 µM ([1]; 2µM, 24h preincubation with gametocytes prior to induction of gametogenesis, replicate R1, read-out: % inhibition male (individual replicates) R1): 63.3%; inhibition at 2 µM ([1]; 2µM, 24h preincubation with gametocytes prior to induction of gametogenesis, replicate R2, read-out: % inhibition male (individual replicates) R2): 40.1%; inhibition at 2 µM ([1]; 2µM, 24h preincubation with gametocytes prior to induction of gametogenesis, replicate R3, read-out: % inhibition male (individual replicates) R3): 55.8%; inhibition at 2 µM ([1]; 2µM, 24h preincubation with gametocytes prior to induction of gametogenesis, replicate R4, read-out: % inhibition male (individual replicates) R4): 69.6%; pIC50 [1]: 5.72; HitlevelF [2, 15]: 2; Selectivity ratio F [2]: 69.69; inhibition at 2 µM ([2]; 2µM, 24h preincubation with gametocytes prior to induction of gametogenesis, average of replicates, read-out: Average inhibition female (%)): 48.8%; inhibition at 2 µM ([2]; 2µM, 24h preincubation with gametocytes prior to induction of gametogenesis, replicate R1, read-out: % inhibition female (individual replicates) R1): 29.7%; inhibition at 2 µM ([2]; 2µM, 24h preincubation with gametocytes prior to induction of gametogenesis, replicate R2, read-out: % inhibition female (individual replicates) R2): 52.6%; inhibition at 2 µM ([2]; 2µM, 24h preincubation with gametocytes prior to induction of gametogenesis, replicate R3, read-out: % inhibition female (individual replicates) R3): 40.8%; inhibition at 2 µM ([2]; 2µM, 24h preincubation with gametocytes prior to induction of gametogenesis, replicate R4, read-out: % inhibition female (individual replicates) R4): 72.3%; pIC50 [2]: 5.84 |
| N#CCSc1nnc(-c2ccccc2)c2ccccc12 [TCMDC-123867] | – | – | – | – | – | – | – | – | – | – | – | -3.0 | -3.8 | 1.3 | 9.7 | -27.1 | 6.9 | -4.3 | % inhibition male (individual replicates) R3 [1, 13]: 10.5% |
| CC1(C)N=C(N)N=C(N)N1c1ccc(Br)cc1.Cl [TCMDC-123959] | -8.5 | 15.3 | 4.6 | -63.1 | – | – | 18.2 | 15.6 | 12.6 | 26.1 | – | – | – | – | – | – | – | – | HitlevelM [1, 14]: 0; HitlevelF [2, 15]: 0 |
| CC1(C)N=C(N)N=C(N)N1c1cccc(Cl)c1.Cl [TCMDC-123960] | – | – | – | – | – | – | – | – | – | – | – | 4.7 | -9.8 | 3.0 | 5.3 | -21.5 | 5.4 | -0.8 | % inhibition male (individual replicates) R3 [1, 13]: -1.4% |
| Br.C[C@@H](COc1ccc(-c2ccccc2)cc1)CON1C(N)=NC(N)=NC1(C)C [TCMDC-124029] | 12.1 | 13.7 | -5.2 | 7.3 | 0 | 0 | 5.2 | -6.6 | 32.8 | -1.3 | 0 | – | – | – | – | – | – | – | – |

— article PMC10584170, “Machine learning-based phenotypic imaging to characterise the targetable biology of Plasmodium falciparum male gametocytes for the development of transmission-blocking antimalarials” (PLOS Pathogens, 2023)
